Counter-ions that a name gives are not always drawn.
Target: T1, human 5-HT2c receptor (Homo sapiens, UniProt P28335)
T1 construct: expressed in transfected cells
T1 sequence (P28335 33-458): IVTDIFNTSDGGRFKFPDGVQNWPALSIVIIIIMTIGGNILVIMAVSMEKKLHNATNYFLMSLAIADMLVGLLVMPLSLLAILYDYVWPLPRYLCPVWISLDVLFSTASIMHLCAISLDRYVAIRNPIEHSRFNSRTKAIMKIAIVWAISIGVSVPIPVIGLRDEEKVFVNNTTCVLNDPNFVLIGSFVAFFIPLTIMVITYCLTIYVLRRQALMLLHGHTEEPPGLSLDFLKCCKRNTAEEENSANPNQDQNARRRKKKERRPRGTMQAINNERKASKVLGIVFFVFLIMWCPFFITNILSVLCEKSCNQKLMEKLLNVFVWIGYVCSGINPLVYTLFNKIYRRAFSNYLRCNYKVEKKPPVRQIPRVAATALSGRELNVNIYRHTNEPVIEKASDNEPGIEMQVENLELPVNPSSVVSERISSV
Experiment: 5-HT2c receptor affinity assay (displacement of 3H-labelled 5-HT, Scintillation Proximity Assay)
Conditions: membranes of HEK293 cells stably expressing human 5-HT2c receptor; 3H-5-HT; non-specific binding 5 μM mianserin
Protocol: The 5-HT2c receptor affinity of compounds in the Examples was determined in competition experiments, where the ability of each compound in serial dilution to displace ^3H-labelled 5-HT, bound to membranes prepared from a transfected HEK293 cell line stably expressing the human 5-HT2c receptor protein, was monitored by Scintillation Proximity Assay technology. Non-specific binding was defined using 5 μM mianserin.

Q: Which Ki does the source give for FCCOc1cncc(N2CCNCC2)n1 [Example 23, 2-(2-Fluoroethoxy)-6-(1-piperazinyl)pyrazine] here?
A: 478 nM

Q: With c1cncc(CCOc2cncc(N3CCNCC3)n2)c1 [Example 12, 2-(1-Piperazinyl)-6-[2-(3-pyridinyl)ethoxy]pyrazine] as the molecule, how does the Ki read?
A: 197 nM

Q: With c1ccc(CCCCCOc2cncc(OC3CCNCC3)n2)cc1 [Example 48, 2-[(5-Phenylpentyl)oxy]-6-(4-piperidinyloxy)pyrazine] as the molecule, how does the Ki read?
A: 37 nM

Q: Which Ki does the source give for c1cc(OCc2cccs2)nc(N2CCNCC2)c1 [Example 18, 1-[6-(2-Thienylmethoxy)-2-pyridinyl]piperazine] here?
A: 92 nM

Q: For c1coc(-c2cncc(N3CCNCC3)n2)c1 [Example 15, 2-(2-Furyl)-6-(1-piperazinyl)pyrazine], which Ki is on record?
A: 616 nM

Q: With c1ccc(COc2cncc(N3CCNCC3)n2)cc1 [Example 20, 2-(Benzyloxy)-6-(1-piperazinyl)pyrazine] as the molecule, how does the Ki read?
A: 28 nM

Q: Which Ki does the source give for c1ccc(COc2ccnc(N3CCNCC3)n2)cc1 [Example 32, 4-(Benzyloxy)-2-(1-piperazinyl)pyrimidine] here?
A: 48 nM

Q: With CC(Oc1cncc(N2CCNCC2)n1)c1cccc(F)c1 (centres unmarked) [Example 2, 2-[1-(3-Fluorophenyl)ethoxy]-6-(1-piperazinyl)pyrazine] as the molecule, how does the Ki read?
A: 8 nM

Tested on: not given
Experiment: not given
Conditions: not given

Q: Which melting point does the source give for COc1cc(COc2cncc(N3CCNCC3)n2)cc(OC)c1 (as salt: maleate) [Example 68, 2-[(3,5-Dimethoxybenzyl)oxy]-6-(1-piperazinyl)pyrazine] here?
A: 134 to 137 °C

Q: Which melting point does the source give for COc1ccccc1COc1cncc(N2CCNCC2)n1 (as salt: hydrochloride) [Example 5, 2-[(2-Methoxybenzyl)oxy]-6-(1-piperazinyl)pyrazine] here?
A: 171 to 173 °C

Q: Which melting point does the source give for COc1cccc(CCOc2cncc(OC3CCNCC3)n2)c1 [Example 45, 2-[2-(3-Methoxyphenyl)ethoxy]-6-(4-piperidinyloxy)pyrazine] here?
A: 86 to 87 °C

Q: With c1ccc(COc2cncc(N3CCNCC3)n2)cc1 (as salt: maleate) [Example 20, 2-(Benzyloxy)-6-(1-piperazinyl)pyrazine] as the molecule, how does the melting point read?
A: 155 to 156 °C

Q: For c1cncc(CCOc2cncc(N3CCNCC3)n2)c1 (as salt: acetate) [Example 12, 2-(1-Piperazinyl)-6-[2-(3-pyridinyl)ethoxy]pyrazine], which melting point is on record?
A: 90 to 91 °C

Q: With COc1ccc(CCOc2cncc(N3CCNCC3)n2)cc1 (as salt: maleate) [Example 69, 2-[2-(4-Methoxyphenyl)ethoxy]-6-(1-piperazinyl)pyrazine] as the molecule, how does the melting point read?
A: 149 to 151 °C

Q: With Fc1ccc(COc2cncc(N3CCNCC3)n2)cc1 [Example 42, 2-[(4-Fluorobenzyl)oxy]-6-(1-piperazinyl)pyrazine] as the molecule, how does the melting point read?
A: 183 °C

Q: Which melting point does the source give for COc1cccc(COc2cncc(N3CCNCC3)n2)c1 (as salt: acetate) [Example 4, 2-[(3-Methoxybenzyl)oxy]-6-(1-piperazinyl)pyrazine] here?
A: 111 to 113 °C

Q: With c1ccc2c(CCOc3cncc(N4CCNCC4)n3)c[nH]c2c1 [Example 29, 2-[2-(1H-Indol-3-yl)ethoxy]-6-(1-piperazinyl)pyrazine] as the molecule, how does the melting point read?
A: 133 to 135 °C

Q: With c1ccc2c(c1)ccn2CCOc1cncc(N2CCNCC2)n1 (as salt: maleate) [Example 28, 2-[2-(1H-Indol-1-yl)ethoxy]-6-(1-piperazinyl)pyrazine] as the molecule, how does the melting point read?
A: 160.5 to 163 °C

Q: Which melting point does the source give for c1cncc(COc2cncc(N3CCNCC3)n2)c1 (as salt: acetate) [Example 11, 2-(1-Piperazinyl)-6-(3-pyridinylmethoxy)pyrazine] here?
A: 98 to 99 °C

Q: For c1ccc2c(c1)OCCC2Oc1cncc(N2CCNCC2)n1 (centres unmarked) (as salt: maleate) [Example 26, 2-(3,4-Dihydro-2H-chromen-4-yloxy)-6-(1-piperazinyl)pyrazine], which melting point is on record?
A: 179.5 to 182 °C

Q: With c1cc2c(cc1COc1cncc(N3CCNCC3)n1)OCO2 (as salt: acetate) [Example 3, 2-(1,3-Benzodioxol-5-ylmethoxy)-6-(1-piperazinyl)pyrazine] as the molecule, how does the melting point read?
A: 124 to 127 °C

Q: Which melting point does the source give for c1ccc(CCOc2cncc(N3CCNCC3)n2)cc1 (as salt: maleate) [Example 14, 2-(2-Phenylethoxy)-6-(1-piperazinyl)pyrazine] here?
A: 166 to 168 °C

Q: For c1ccc2c(c1)CCCC2Oc1cncc(N2CCNCC2)n1 (centres unmarked) (as salt: acetate) [Example 9, 6-(1-Piperazinyl)-2-pyrazinyl 1,2,3,4-tetrahydro-1-naphthalenyl ether], which melting point is on record?
A: 160 to 162 °C

Q: Which melting point does the source give for FC(F)(F)c1ccc(COc2cncc(N3CCNCC3)n2)cc1 (as salt: acetate) [Example 10, 2-(1-Piperazinyl)-6-{[4-(trifluoromethyl)benzyl]oxy}pyrazine] here?
A: 84 to 85 °C

Q: Which melting point does the source give for Clc1cccc(CCOc2cncc(N3CCNCC3)n2)c1 (as salt: acetate) [Example 8, 2-[2-(3-Chlorophenyl)ethoxy]-6-(1-piperazinyl)pyrazine] here?
A: 118 to 119 °C

Q: For Fc1cc(F)cc(COc2cncc(N3CCNCC3)n2)c1 (as salt: acetate) [Example 6, 2-[(3,5-Difluorobenzyl)oxy]-6-(1-piperazinyl)pyrazine], which melting point is on record?
A: 70 to 72 °C

Q: For c1ccc(-c2ccc(COc3cncc(N4CCNCC4)n3)cc2)cc1 (as salt: acetate) [Example 7, 2-([1,1′-Biphenyl]-4-ylmethoxy)-6-(1-piperazinyl)pyrazine], which melting point is on record?
A: 102 to 104 °C

Target: T2, 5-HT2c receptor (Mus musculus, UniProt P34968)
T2 construct: mice that express the normal 5-HT2c receptor; host or cells: mice, in vivo
T2 sequence (P34968 33-459): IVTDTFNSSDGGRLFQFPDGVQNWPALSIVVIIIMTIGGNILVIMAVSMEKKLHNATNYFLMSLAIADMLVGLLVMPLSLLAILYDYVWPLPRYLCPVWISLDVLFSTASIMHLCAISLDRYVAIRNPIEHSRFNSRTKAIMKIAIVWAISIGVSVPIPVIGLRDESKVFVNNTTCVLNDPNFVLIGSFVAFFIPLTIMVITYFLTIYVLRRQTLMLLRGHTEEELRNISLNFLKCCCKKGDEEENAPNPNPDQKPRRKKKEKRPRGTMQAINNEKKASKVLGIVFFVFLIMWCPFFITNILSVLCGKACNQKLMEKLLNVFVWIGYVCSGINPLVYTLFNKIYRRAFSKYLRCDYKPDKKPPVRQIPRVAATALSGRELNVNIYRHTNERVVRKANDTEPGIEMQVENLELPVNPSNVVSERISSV
Experiment: not given
Conditions: mice that express the normal 5-HT2c receptor; cited from earlier work

Q: Which food intake does the source give for Clc1cccc(N2CCNCC2)c1 [mCPP, m-chlorophenylpiperazine] here?
A: reduces food intake

Tested on: 5-HT2c receptor
Experiment: not given
Conditions: mice expressing the mutated inactive form of the 5-HT2c receptor; cited from earlier work

Q: For Clc1cccc(N2CCNCC2)c1 [mCPP, m-chlorophenylpiperazine], which food intake is on record?
A: lacks activity

Tested on: not given
Experiment: not given
Conditions: obese subjects, after 2 weeks of treatment; cited from earlier work

Q: For Clc1cccc(N2CCNCC2)c1 [mCPP, m-chlorophenylpiperazine], which body weight is on record?
A: slight but sustained reduction in body weight

Tested on: not given
Experiment: not given
Conditions: controlled studies; cited from earlier work

Q: For CNCCC(Oc1ccc(C(F)(F)F)cc1)c1ccccc1 (centres unmarked) [fluoxetine], which weight reduction is on record?
A: exhibited weight reduction

Q: With CCN[C@@H](C)Cc1cccc(C(F)(F)F)c1 [dexfenfluramine] as the molecule, how does the weight reduction read?
A: exhibited weight reduction

Source: US7247633B2, “Pyrimidine compounds and their use” (Biovitrum AB, priority 2000, dated 2007)
